Source: ChEMBL document CHEMBL1201862, “PubChem BioAssay data set” (2004)
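1) Cells in 96-well plates. 2) Compound, 48 h, 5 concentrations. 3) Linear interpolation between surrounding doses. 4) Unreached endpoint = highest concentration. The concentration for 50% growth inhibition is given as GI50.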 The source made the active and inactive calls. No stated cut-off is given here; in the data, active = GI50 up to about 1.1 µM and inactive = higher.

Key:
Assay in all cases: NCI anticancer screen, dose series, 48 h
786-0 = system: 786-0
A498 = system: A498
A549 = system: A549
ACHN = system: ACHN
BT-549 = system: BT-549
CAKI-1 = system: CAKI-1
CCRF-CEM = system: CCRF-CEM
COLO 205 = system: COLO 205
DU-145 = system: DU-145
EKVX = system: EKVX
HCC 2998 = system: HCC 2998
HCT-116 = system: HCT-116
HCT-15 = system: HCT-15
HL-60 = system: HL-60
HOP-62 = system: HOP-62
HOP-92 = system: HOP-92
HT-29 = system: HT-29
Hs-578T = system: Hs-578T
IGROV-1 = system: IGROV-1
K562 = system: K562
KM12 = system: KM12
LOX IMVI = system: LOX IMVI
M14 = system: M14
MCF7 = system: MCF7
MDA-MB-231 = system: MDA-MB-231
MDA-MB-435 = system: MDA-MB-435
MDA-N = system: MDA-N
MOLT-4 = system: MOLT-4
Malme-3M = system: Malme-3M
NCI-H23 = system: NCI-H23
NCI-H460 = system: NCI-H460
NCI-H522 = system: NCI-H522
NCI/ADR-RES = system: NCI/ADR-RES
OVCAR-4 = system: OVCAR-4
OVCAR-5 = system: OVCAR-5
OVCAR-8 = system: OVCAR-8
PC-3 = system: PC-3
RPMI-8226 = system: RPMI-8226
RXF 393 = system: RXF 393
SF-268 = system: SF-268
SF-295 = system: SF-295
SK-MEL-28 = system: SK-MEL-28
SK-MEL-2 = system: SK-MEL-2
SK-MEL-5 = system: SK-MEL-5
SK-OV-3 = system: SK-OV-3
SN12C = system: SN12C
SNB-19 = system: SNB-19
SNB-75 = system: SNB-75
SR = system: SR
SW-620 = system: SW-620
T47D = system: T47D
TK-10 = system: TK-10
U-251 = system: U-251
UACC-257 = system: UACC-257
UACC-62 = system: UACC-62
UO-31 = system: UO-31

## C[C@]12[C@@H]3CC[C@H]1[C@@H](O)C(=O)N2CC3
786-0
  GI50: > 100 µM (inactive)
A498
  GI50: > 100 µM (inactive)
A549
  GI50: > 100 µM (inactive)
ACHN
  GI50: > 100 µM (inactive)
BT-549
  GI50: > 100 µM (inactive)
CAKI-1
  GI50: > 100 µM (inactive)
CCRF-CEM
  GI50: > 100 µM (inactive)
COLO 205
  GI50: > 100 µM (inactive)
DU-145
  GI50: > 100 µM (inactive)
EKVX
  GI50: > 100 µM (inactive)
HCC 2998
  GI50: > 100 µM (inactive)
HCT-116
  GI50: > 100 µM (inactive)
HCT-15
  GI50: > 100 µM
HL-60
  GI50: > 100 µM (inactive)
HOP-62
  GI50: > 100 µM (inactive)
HOP-92
  GI50: > 100 µM (inactive)
HT-29
  GI50: > 100 µM (inactive)
Hs-578T
  GI50: > 100 µM (inactive)
IGROV-1
  GI50: > 100 µM (inactive)
K562
  GI50: > 100 µM (inactive)
KM12
  GI50: > 100 µM (inactive)
LOX IMVI
  GI50: > 100 µM (inactive)
M14
  GI50: > 100 µM (inactive)
MCF7
  GI50: > 100 µM (inactive)
MDA-MB-231
  GI50: > 100 µM (inactive)
MDA-MB-435
  GI50: > 100 µM (inactive)
MDA-N
  GI50: > 100 µM (inactive)
MOLT-4
  GI50: > 100 µM (inactive)
Malme-3M
  GI50: > 100 µM (inactive)
NCI-H23
  GI50: > 100 µM (inactive)
NCI-H460
  GI50: > 100 µM (inactive)
NCI-H522
  GI50: > 100 µM (inactive)
NCI/ADR-RES
  GI50: > 100 µM (inactive)
OVCAR-4
  GI50: > 100 µM (inactive)
OVCAR-5
  GI50: > 100 µM (inactive)
OVCAR-8
  GI50: > 100 µM (inactive)
PC-3
  GI50: > 100 µM (inactive)
RPMI-8226
  GI50: > 100 µM (inactive)
RXF 393
  GI50: > 100 µM (inactive)
SF-268
  GI50: > 100 µM (inactive)
SF-295
  GI50: > 100 µM (inactive)
SK-MEL-28
  GI50: > 100 µM (inactive)
SK-MEL-2
  GI50: > 100 µM (inactive)
SK-MEL-5
  GI50: > 100 µM (inactive)
SK-OV-3
  GI50: > 100 µM (inactive)
SN12C
  GI50: > 100 µM (inactive)
SNB-19
  GI50: > 100 µM (inactive)
SNB-75
  GI50: > 100 µM (inactive)
SR
  GI50: > 100 µM (inactive)
SW-620
  GI50: > 100 µM (inactive)
T47D
  GI50: > 100 µM (inactive)
TK-10
  GI50: > 100 µM (inactive)
U-251
  GI50: > 100 µM (inactive)
UACC-257
  GI50: > 100 µM (inactive)
UACC-62
  GI50: > 100 µM (inactive)
UO-31
  GI50: > 100 µM (inactive)
